Reference: the supplement of paper PMC3974653
Where a name gives a salt, the structure may show the parent alone.

What follows are compounds tested on MTT (mouse pheochromocytoma) (assay: IC50 of cell viability (ATP content)). Conditions: (24 or 48 h).
Outline: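 MTT mouse pheochromocytoma cells were seeded into white 1536-well plates at 5 µl per well from a 200,000 cells/ml suspension in DMEM with 5% FBS and 1% horse serum, then cultured overnight at 37°C, 5% CO2. A pintool added 23 nl of library compound in DMSO at 8 concentrations (final 0.5 nM to 46 µM) for 24 or 48 hrs, and CellTiter-Glo ATP luminescence was read after 15 minutes. Signals were scaled so that positive-control wells equalled 100% and DMSO wells 0%. IC50 values were derived by fitting a four-parameter logistic curve.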

SMILES	IC50 of cell viability [µM]
C[S+](=O)([O-])CCNCc1ccc(-c2ccc3ncnc(Nc4ccc(OCc5cccc(F)c5)c(Cl)c4)c3c2)o1 [LAPATINIB TOSILATE HYDRATE]	> 46
CCCCCCCCCCCC(=O)N(CCO)CCO [LAURIC DIETHANOLAMIDE]	> 46
CCCCCCCCCCCCOCCCN [LAURIXAMINUM]	> 46
NCCNC(=O)c1ccc(Cl)cn1 [LAZABEMIDE HYDROCHLORIDE]	> 46
CN(C)[C@@H](Cc1ccccc1)c1ccccc1 [LEFETAMINE HYDROCHLORIDE]	> 46
COC(=O)\C1=C(/C)N\C(=C(/C1C2=C(Cl)C(=CC=C2)Cl)C(=O)OC(C)C)COC(N)=O (stereo not given) [LEMILDIPINE]	> 46
Nc1cccc2c1CN(C1CCC(=O)NC1=O)C2=O (stereo not given) [LENALIDOMIDE]	> 46
COC(=O)C1=C(C)NC(C)=C(C(=O)OC(C)(C)CN(C)CCC(c2ccccc2)c2ccccc2)C1c1cccc([N+](=O)[O-])c1 (stereo not given) [LERCANIDIPINE HYDROCHLORIDE]	> 46
COC(=O)CC[C@H](N)C(=O)O [LEUCIGLUMERUM]	> 46
C=CCN1CC[C@]23CCCCC2[C@H]1Cc1ccc(O)cc13 (stereo not given in full) [LEVALLORPHAN]	> 46
Clc1cccc(C(c2ccc3nc[nH]c3c2)n2ccnc2)c1 (stereo not given) [LIAROZOLE]	> 46
CCN(CC)CC(=O)Nc1c(C)cccc1C [LIDOCAINE]	> 46
CC1(C)OC2CC(=O)OC[C@@]23C1CC(=O)[C@]1(C)C3CC[C@@]2(C)C(c3ccoc3)OC(=O)C3O[C@@]321 (stereo not given in full) [LIMONIN]	> 46
ClC1C(Cl)C(Cl)C(Cl)C(Cl)C1Cl (stereo not given) [LINDANE]	> 46
CC/C=C\C/C=C\C/C=C\CCCCCCCC(=O)O [LINOLENIC ACID]	> 46
O=C(O)COc1ccc(CCN[S+](=O)([O-])c2ccccc2)s1 [LINOTROBANUM]	> 46
O=C(O)Cn1c(C(=O)Nc2nc(-c3ccccc3Cl)cs2)cc2ccccc21 [LINTITRIPTUM]	> 46
CN1[C@@H](CC(=O)c2ccccc2)CCC[C@H]1C[C@H](O)c1ccccc1 [LOBELINE]	> 46
O=C([O-])c1ccccc1Nc1cc(Cl)ccc1C(=O)[O-] [LOBENZARIT DISODIUM]	> 46
O=NN(CCCl)C(=O)NC1CCCCC1 [LOMUSTINE]	> 46
Cc1cccc(C)c1OCC(=O)N[C@@H](Cc1ccccc1)[C@@H](O)C[C@H](Cc1ccccc1)NC(=O)[C@H](C(C)C)N1CCCNC1=O [LOPINAVIR]	> 46
CCOC(=O)N1CCC(=C2c3ccc(Cl)cc3CCc3cccnc32)CC1 [LORATADINE]	> 46
CCCCCN(CCCCC)C(=O)C(CCC(=O)[O-])NC(=O)c1ccc(Cl)c(Cl)c1.[Na+] (stereo not given) [LORGLUMIDE SODIUM]	> 46

SMILES	IC50 of cell viability [µM]
CCCCc1nc(Cl)c(CO)n1Cc1ccc(-c2ccccc2-c2nnn[nH]2)cc1 [LOSARTAN]	> 46
N\C1=N\C2=C(N(CC=C)C(=O)N2C3OC(CO)C(O)C3O)/C(=O)N1 (stereo not given) [LOXORIBINUM]	> 46
N#C/C(=C1/SC[C@@H](c2ccc(Cl)cc2Cl)S1)n1ccnc1 [LULICONAZOLE]	> 46
CCCCN(CCCC)CC(O)c1cc(Cl)cc2c1-c1ccc(Cl)cc1/C2=C/c1ccc(Cl)cc1 (stereo not given) [LUMEFANTRINE]	> 46
CC1=C[C@@H](O)CC(C)(C)[C@@H]1/C=C/C(C)=C/C=C/C(C)=C/C=C/C=C(C)/C=C/C=C(C)/C=C/C1=C(C)C[C@H](O)CC1(C)C [LUTEIN]	> 46
CCCN1CCC[C@@H]2Cc3nc(N)ncc3C[C@H]21 [LY-163,502]	> 46
CC(C)=CCC/C(C)=C/C=C/C(C)=C/C=C/C(C)=C/C=C/C=C(C)/C=C/C=C(C)/C=C/C=C(\C)CCC=C(C)C [LYCOPENE]	> 46
C[C@@H](CCc1ccccc1)NC[C@H](O)c1ccc(O)c(C(N)=O)c1 [Labetalol hydrochloride]	> 46
CCOC(=O)C1=C(C)NC(C)=C(C(=O)OCC)C1c1ccccc1/C=C\C(=O)OC(C)(C)C [Lacidipine]	> 46
CC(O)C(=O)O (stereo not given) [Lactic acid]	> 46
OC[C@@H](O)C(O[C@@H]1O[C@@H](CO)[C@H](O)[C@H](O)[C@H]1O)[C@H](O)[C@@H](O)CO (stereo not given in full) [Lactitol]	> 46
O=C(O)[C@@H](O)[C@@H](O)[C@@H](O[C@@H]1O[C@@H](CO)[C@@H](O)[C@@H](O)[C@H]1O)[C@@H](O)CO [Lactobionic acid]	> 46
Nc1ccn([C@@H]2CS[C@H](CO)O2)c(=O)n1 [Lamivudine]	> 46
Nc1nnc(-c2cccc(Cl)c2Cl)c(N)n1 [Lamotrigine]	> 46
CC(=O)OC1CC(OC2C(O)CC(OC3C(O)CC(O[C@H]4CC[C@]5(C)C6CC[C@]7(C)[C@@H](C8=CC(=O)OC8)[C@@H](O)C[C@]7(O)[C@@H]6CC[C@@H]5C4)OC3C)OC2C)OC(C)C1OC1OC(CO)C(O)C(O)C1O (stereo not given in full) [Lanatoside B]	> 46
CC1(C)OC[C@@H](COC(=O)CCc2ccc(OC[C@@H](O)CNCCNC(=O)N3CCOCC3)cc2)O1 [Landiolol Hydrochloride]	> 46
CC1(C)OC[C@@H](COC(=O)CCc2ccc(OC[C@@H](O)CNCCNC(=O)N3CCOCC3)cc2)O1 [Landiolol]	> 46
Cc1c(OCC(F)(F)F)ccnc1C[S+]([O-])c1nc2ccccc2[nH]1 (stereo not given) [Lansoprazole]	> 46
Cc1oncc1C(=O)Nc1ccc(C(F)(F)F)cc1 [Leflunomide]	> 46
O=C(CCCN1CCC(C(=O)c2ccc(F)cc2)CC1)c1ccc(F)cc1 [Lenperone]	> 46
N#Cc1ccc(C(c2ccc(C#N)cc2)n2cncn2)cc1 [Letrozole]	> 46
CCNC(=O)[C@H]1CCCN1C(=O)[C@H](CCCNC(=N)N)NC(=O)[C@H](CC(C)C)NC(=O)[C@H](CC(C)C)NC(=O)[C@@H](Cc1ccc(O)cc1)NC(=O)[C@H](CO)NC(=O)[C@@H](Cc1c[nH]c2ccccc12)NC(=O)[C@H](Cc1c[nH]cn1)NC(=O)[C@@H]1CCC(=O)N1 [Leuprolide acetate salt]	> 46
